Results reported in US12246004B2, “Therapeutic treatment of microsatellite unstable cancers” (THE BROAD INSTITUTE, INC., priority 2018, dated 2025).

Tests used:
KM12 cells = test: Luciferase competitive growth assay, rescue by ectopic WRN cDNA; assay type: cell-based
Description: The catalytically active version, exonuclease-dead (E84A), helicase-dead (K577M) and dually exonuclease and helicase-dead (E84A/K577M) versions of WRN cDNA were a gift from R. J. Monnat (Addgene, plasmids 46038, 46036, 46035 and 46037, respectively). […] The WRN sequence was cloned into a modified lentiviral expression vector, pLX_TRC209, under an EF1A promoter and modified to contain a neomycin-selectable marker. Sanger sequencing of the vectors and genomic DNA after integration were performed to confirm sequence identity. Lentivirus was produced as described below and transduced into dually Cas9-Firefly-luciferase-expressing KM12 cells to create stable ectopic WRN cDNA-expressing cell lines.
Dual Cas9-Firefly-luciferase- and Renilla-luciferase-expressing cells were generated by transduction of Firefly-luciferase cDNA and Renilla-luciferase cDNA, respectively, in a pLX_TRC313 lentiviral expression vector containing a hygromycin-resistance gene. After hygromycin selection, these two versions of the cell line were co-seeded in a 96 well plate at the following densities per well for each version: ES2 2×10^3 cells per well, OVK18, 3×10^3 cells per well; SW620, 4×10^3 cells per well; KM12, 4×10^3 cells per well. The following day, cells were transduced with lentivirus expressing the indicated sgRNA and a puromycin-resistance gene in six replicates. The day following viral transduction, the medium was changed to include puromycin. Cells were split and assayed with the Dual-Glo Luciferase Assay System (Promega) per the manufacturer's recommendations every 3-4 days. Luminescence was determined using the Perkin Elmer EnVision 2105. Values are presented as the ratio of Firefly to Renilla-luciferase luminescence signal per condition and normalized to the mean of the corresponding negative control sgRNAs for each cell line. Experiments in FIG. 2C and FIG. 7B were performed three times. Two-tailed Student's t-tests were performed when comparing single sgRNAs (FIG. 2C). Two-way ANOVAs were performed when multiple WRN sgRNAs were compared to negative controls (FIG. 7B).

WRN = test: Immunoblot of WRN levels after sgRNA transduction; assay type: cell-based; settings: KM12 cells expressing WRN cDNA (FIG. 2B)
Description: For immunoblotting, cells were lysed in RIPA buffer (Sigma-Aldrich) supplemented with complete Protease Inhibitor Cocktail (Roche, 11697498001) and a Halt Phosphatase Inhibitor Cocktail (Thermo Fischer Scientific, 78428). For etoposide and hydroxyurea treatment (FIG. 4A), cells were treated with 10 μM etoposide and 1 mM hydroxyurea, respectively, 6 h before collection. Lysates were fractionated in 4-12% Bis-Tris gels (Invitrogen), which was then transferred to PVDF membranes (Immobilon-FL PVDF Millipore, IPFL00010) and blocked for an hour with Odyssey Blocking Buffer (PBS) (LI-COR Biosciences, 927-40000). Types of primary antibodies and the dilutions used for immunoblotting were as follows: anti-phospho-CHK2 (T68) (R&D Systems, AF1626, 1:400); anti-total CHK2 (Cell Signaling Technology, 3440, 1:1,000); anti-[…] (Cell Signaling Technology, 9718, 1:1,000); anti-GAPDH (Cell Signaling Technology, 5174, 1:1,000); anti-MLH1 (Cell Signaling Technology, 3515, 1:1,000); anti-MSH3 (BD Biosciences, 611390, 1:400); anti-WRN (Novus Biologicals, nb100-472, 1:1,000). The following secondary antibodies were used: goat anti-rabbit IRDye 800CW (LI-COR, 926-32211, 1:5,000), goat anti-rabbit IRDye 680LT (LI-COR, 926-68021), and goat anti-mouse IRDye 800CW (LI-COR, 926-32210). […]

MSI cells = test: Telomere PNA-FISH of metaphase spreads; assay type: cell-based; settings: two MSI cell lines; 96 h after induction of shRNA
Description: (§1) In brief, 3×10^6 cells were plated in 10-cm dishes in the absence of doxycycline. For cells treated with doxycycline, 0.2 μg ml^−1 of doxycycline was added and refreshed every 48 h. Then, 96 h after adding doxycycline, cells were treated with 10 μg ml^−1 of colcemid for 3 h and then detached with trypsin. Half of the cell pellet was saved for immunoblot analysis. The other half of the cell pellet was treated with a hypotonic solution (60 mM KCl) and fixed with a 3:1 ratio of methanol:acidic acid. Metaphases were spread onto a slide and fixed with 3% formalin. The PNA-FISH probe ((CCCTAA)3 PNA probe (PNA Bio)) was applied to the slides and denatured at 85° C. for 3 min. The slides were washed with washing solution I (70% formamide, 0.1% Tween-20, 0.1% BSA in 10 mM Tris buffer, pH 7.5) twice and three times with washing solution II (150 mM NaCl, 0.1% Tween-20, 0.1% BSA in 50 mM Tris buffer, pH 7.5). Cy5-ATTCGTTGGAAACGGGA (SEQ ID NO: 28) was used to label centromeres. Images were captured with a Nikon Eclipse 80i microscope and processed with the NISElements BR software. In total, 30 to 60 metaphases were analyzed for cells of the indicated conditions. Two-tailed Student's 1-tests were performed (FIG. 4E). These experiments were performed twice.

MSS cells = test: Telomere PNA-FISH of metaphase spreads; assay type: cell-based; settings: two MSS cell lines; 96 h after induction of shRNA
Description: as §1

KM12 xenografts = test: KM12 xenograft growth with doxycycline-inducible shRNA; assay type: in vivo, mice; settings: doxycycline induction of shRNA (FIG. 2D)
Description: Studies were approved by the Institutional Animal Care and Use Committee (IACUC) of the Broad Institute under animal protocol 0194-01-18. IACUC guidelines on the ethical use and care of animals were followed. For growth curves, 10^6 KM12 cells expressing WRN shRNA 1 or WRN-C911 shRNA 1 were inoculated subcutaneously into right hind flank of approximately 8-week-old female SCID Hairless Outbred (SHO) mice obtained from Charles River Laboratories. Tumors were measured twice weekly with calipers and the tumor volumes were calculated using the formula π/6×(width^2×length). When primary tumors reached around 100 mm^3, the mice were randomized onto Control Teklad Global 18% Protein Rodent Diet or Teklad Global 18% Protein Rodent Diet containing 625 mg kg^−1 doxycycline hyclate. Mice remained on their respective diets throughout the remainder of the study. Animal body weights were recorded twice weekly during the course of the study for body condition scoring. For the growth curves, n=5 (4 from days 15-18), 5, 4, 4 for WRN shRNA 1 without doxycycline, WRN shRNA 1 with doxycycline, WRN-C911 shRNA 1 without doxycycline, WRN-C911 shRNA 1 with doxycycline treatment, respectively. One mouse treated with KM12 cells with WRN shRNA 1 without doxycycline was euthanized before day 15 because of tumor ulceration. No experiments exceeded the maximal tumor volumes of 2,000 mm^3 set forth by the IACUC. […]

Substance | Rescue of viability by WRN cDNA (KM12 cells; Cas9-expressing KM12 cells, 9 days after sgRNA transduction (FIG. 2C)) | Rescue of viability by exonuclease-dead (E84A) WRN cDNA (KM12 cells; KM12 cells (FIGS. 2B and 2C)) | Rescue of viability by helicase-dead (K577M) WRN cDNA (KM12 cells; KM12 cells (FIGS. 2B and 2C)) | Silencing of endogenous versus exogenous WRN (immunoblot) (WRN) | Chromosomal integrity (DSBs, fragmentation) in metaphase spreads (MSI cells) | Chromosomal integrity (DSBs, fragmentation) in metaphase spreads (MSS cells) | Tumor growth (KM12 xenografts)
WRN EIJ sgRNA: sgRNA targeting a WRN exon-intron junction, target sequence AGCACGTACATAAGCATCAG (SEQ ID NO: 4) (only the sgRNA target sequence is given, scaffold and chemistry not given here, further chemistry not given here) | rescued | did not attenuate rescue | prevented rescue | silencing endogenous WRN, but not exogenous WRN cDNA |  |  | 
WRN shRNA 1: shRNA targeting WRN chosen from project DRIVE, CAGCACTGCCAATGGTTCCAA; SEQ ID NO: 5 |  |  |  |  | induced DSBs and fragmentation throughout chromosomes | but not in MSS cells | significantly impaired tumor growth
